Measured values as given in patent publication US11987608B2, “Composition for accelerating cell proliferation comprising erythropoietin-derived peptide” (SYLUS CO., LTD., priority 2018, dated 2024).
Like-named read-outs stand apart in the source and are kept apart here. No end group written: not given here.

Columns and labels:
[1] = biological target: T1, Soluble mouse EPOR chimera proteins (Mus musculus, UniProt P14753); assay: SPR binding affinity of erythropoietin-derived peptides to erythropoietin receptor; details: for koff: read-out: Kd (dissociation rate); for kon: read-out: Ka (association rate)
T1 construct: Soluble mouse EPOR chimera proteins; purchased R&D Systems
T1 sequence (P14753 25-249 limits assumed): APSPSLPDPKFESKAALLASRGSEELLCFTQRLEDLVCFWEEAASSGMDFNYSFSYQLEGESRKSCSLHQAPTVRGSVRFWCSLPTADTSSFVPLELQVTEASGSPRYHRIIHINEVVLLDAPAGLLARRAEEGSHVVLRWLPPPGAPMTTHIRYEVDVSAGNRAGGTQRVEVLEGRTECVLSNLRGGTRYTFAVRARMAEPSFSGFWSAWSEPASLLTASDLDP
Method: The SPR technique is to measure interactions between biomolecules in real-time by using an optical principle without specific labeling, and is a system analyzing affinity between two molecules and kinetics, i.e., an association rate (Ka) and a dissociation rate (Kd).
In detail, real-time SPR analysis was performed using Reichert SPR Biosensor SR 7500C instrument (Reichert Inc., NY, USA). Soluble mouse EPOR chimera proteins (R&D Systems, Minneapolis, MN, USA) were covalently linked to a carboxymethylated dextran matrix-coated chip (BR-1005-39, Pharmacia Biosensor AB) by an amine coupling procedure using an amine coupling kit (BR-1000-50, GE Healthcare, USA) in accordance with manufacturer's instructions. Each 5 μM, 2.5 μM, and 1.25 μM of the peptide samples of the present disclosure and scrambled peptides were applied at a flow rate of 5 μl/minute, and the experiments were independently performed in duplicate. For signal normalization, DMSO was applied at a flow rate of 5 μl/minute, and after each binding cycle, the sensor chip was regenerated by injecting 25 mM acetic acid at a flow rate of 20 μl/minute.

PC12 cells [2] = assay: Comparison of cell protective and proliferative effects to EPO by K-means clustering; assay type: cell-based; details: FIG. 9
erythropoietin receptor = biological target: T2, erythropoietin receptor (Homo sapiens, UniProt P19235); assay: Erythropoietin receptor activation through ERK1/2 phosphorylation (western blot) in HEK 293 cells expressing EPOR-GFP; assay type: cell-based; details: FIG. 12; for character of erythropoietin receptor activation: ERK1/2 phosphorylation
T2 construct: expressed in transfected cells
T2 sequence (P19235 25-508): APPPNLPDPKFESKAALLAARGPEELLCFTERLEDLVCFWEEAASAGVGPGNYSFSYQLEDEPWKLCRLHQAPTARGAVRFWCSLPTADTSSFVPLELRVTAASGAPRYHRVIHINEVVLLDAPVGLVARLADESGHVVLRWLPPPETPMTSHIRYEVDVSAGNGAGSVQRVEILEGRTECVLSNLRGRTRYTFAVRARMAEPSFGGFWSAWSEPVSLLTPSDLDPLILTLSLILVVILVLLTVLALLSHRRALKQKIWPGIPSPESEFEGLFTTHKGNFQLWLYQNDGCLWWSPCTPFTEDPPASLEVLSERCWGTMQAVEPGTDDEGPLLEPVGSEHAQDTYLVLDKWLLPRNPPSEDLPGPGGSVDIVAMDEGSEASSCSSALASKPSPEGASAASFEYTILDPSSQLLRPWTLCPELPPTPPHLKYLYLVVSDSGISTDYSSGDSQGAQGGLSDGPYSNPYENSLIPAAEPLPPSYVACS

PC12 cells [3] = assay: Cell proliferation, MTT assay; assay type: cell-based; details: 10 ng/ml peptide, 24 hours, FIG. 7
Method: To determine the side effect, such as cell proliferation, of the peptides prepared in Examples 1 to 3, cell viability was evaluated by an MTT assay.
In detail, PC12 cells were cultured in a DMEM (Dulbecco's Modified Eagle's Medium) medium (Hyclone, USA) and an RPM11640 medium (Hyclone, UT, USA), each supplemented with 10% fetal bovine serum (FBS, Hyclone, Utah, USA), 100 unit/ml penicillin, and 100 μg/ml streptomycin (Hyclone, UT, USA) in an incubator supplied with 5% CO2 and under a condition of 37° C. PC12 cell lines were seeded in a 96-well plate at a density of 5×10^4 cells/ml, and cultured under conditions of 37° C. and 5% CO2 for 24 hours. Thereafter, the cells were treated with each of the peptides of Examples 1 to 3, which were prepared at a concentration of 10 ng/ml, followed by incubation for 24 hours. Thereafter, 20 μl of 5 mg/ml 3-[4,5-dimethyl-thiazol]-2,5-diphenyl-tetrazolium bromide (MTT) reagent was added thereto, and allowed to react for 2 hours. After reaction, 200 μl of dimethyl sulfoxide (DMSO, Duksan, Gyeonggi-do, Korea) was added thereto to completely dissolve formed formazan, and absorbance at 570 nm was measured using a microplate reader (Molecular Devices, CA, USA).

mice = assay: In vivo hematopoietic activity, blood test; parameters: species or system mouse
Method: In vivo hematopoietic activities in a mouse were measured for the peptides prepared in Example 5, MLP, MLP-C, and MLP-H.
In detail, the prepared peptide or scrambled (Scr) peptide as a negative control group was administered by intraperitoneal injection to mice at a dose of 0 μg/kg, 1 μg/kg, or 100 μg/kg repeatedly, everyday over 14 days. Thereafter, a body weight test and a blood test were performed.

[4] = sampling at 0, 30, 60, 90 minutes
[5] = 100 μg/kg intraperitoneal daily over 14 days

CC[C@H](C)[C@H](NC(=O)[C@H](C)NC(=O)[C@H](CCC(=O)O)NC(=O)[C@H](CCCCN)NC(=O)[C@H](CCC(N)=O)NC(=O)[C@H](C)NC(=O)CNC(=O)[C@H](CC(C)C)NC(=O)[C@H](C)NC(=O)[C@H](CCCNC(=N)N)NC(=O)[C@H](CC(C)C)NC(=O)[C@H](CC(C)C)NC(=O)[C@@H](NC(=O)[C@@H](NC(=O)[C@H](CC(C)C)NC(=O)[C@H](CO)NC(=O)[C@H](CCCNC(=N)N)NC(=O)[C@H](CC(C)C)NC(=O)CNC(=O)[C@@H](N)CO)[C@@H](C)O)[C@@H](C)O)C(=O)O [ML6]
koff ([1]; SPR, Table 10): 0.045 s⁻¹

AGLRSRAHLRRALA [ML5-1]
kon ([1]; SPR, Table 10): 442 M⁻¹ s⁻¹ | koff ([1]; SPR, Table 10): 0.0346 s⁻¹

DEALDLEVDKAATGLRTLTTLIRAL [ML7-1]
kon ([1]; SPR, Table 10): 226 M⁻¹ s⁻¹ | koff ([1]; SPR, Table 10): 0.0144 s⁻¹

DKAVSGLRSLTTLLRAL [ML8]
kon ([1]; SPR, Table 10): 180 M⁻¹ s⁻¹ | koff ([1]; SPR, Table 10): 0.08 s⁻¹

DKAVSGLRSLTTLLRALGAQKEAI [ML4]
kon ([1]; SPR, Table 10): 220 M⁻¹ s⁻¹ | koff ([1]; SPR, Table 10): 0.0022 s⁻¹

KGLRSLISLLRALGAQKEAI [ML6-1]
kon ([1]; SPR, Table 10): 190 M⁻¹ s⁻¹ | koff ([1]; SPR, Table 10): 0.03 s⁻¹

KKAVSGLKTLTHILRALGAQKEAI [ML4-1]
kon ([1]; SPR, Table 10): 410 M⁻¹ s⁻¹

LDLEVDKAVSGLRSLTTLLRALG [ML1-C1]
clustering of cell protective and proliferative effects relative to EPO (PC12 cells [2]): clustered as having similar effects as EPO | kon [1]: 1750 M⁻¹ s⁻¹ | koff [1]: 0.262 s⁻¹

LHVDKAVSGLRSLTTLLRAL [ML2]
koff ([1]; SPR, Table 10): 0.0044 s⁻¹

LHVLKAVSGLLTLTMIRRA (MLP-H) [ML1-H2 with two amino acids removed from both ends, for in vivo use]
character of erythropoietin receptor activation (erythropoietin receptor): weak yet lasts for a prolonged period of time | erythropoietin receptor activation after 30 minutes (erythropoietin receptor; [4]): maintains activation even after 30 minutes

LQLHVDKAVSGLRSLTTLLRALG [ML1]
cell proliferative effects compared to EPO groups (PC12 cells [2]): a large difference | cell protective effects compared to EPO groups (PC12 cells [2]): no large difference | kon ([1]; SPR, Table 10): 1310 M⁻¹ s⁻¹ | koff ([1]; SPR, Table 10): 0.0085 s⁻¹ | kon ([1]; SPR, Table 11): 1310 M⁻¹ s⁻¹ | koff ([1]; SPR, Table 11): 0.00847 s⁻¹

LQLHVLKAVAGLRTLAMIRRALA [ML1-H3]
cell proliferative effects compared to EPO groups (PC12 cells [2]): a large difference | cell protective effects compared to EPO groups (PC12 cells [2]): no large difference | kon ([1]; SPR, Table 11): 4160 M⁻¹ s⁻¹ | koff ([1]; SPR, Table 11): 0.00477 s⁻¹

LQLHVLKAVSGLLTHTTLLKALG [ML1-H1]
cell proliferative effects compared to EPO groups (PC12 cells [2]): a large difference | cell protective effects compared to EPO groups (PC12 cells [2]): no large difference | kon ([1]; SPR, Table 11): 1010 M⁻¹ s⁻¹ | koff ([1]; SPR, Table 11): 0.00794 s⁻¹

LQLHVLKAVSGLLTLTMIRRALG [ML1-H2]
cell proliferative effects compared to EPO groups (PC12 cells [2]): a large difference | cell protective effects compared to EPO groups (PC12 cells [2]): no large difference | kon ([1]; SPR, Table 11): 3430 M⁻¹ s⁻¹ | koff ([1]; SPR, Table 11): 0.00105 s⁻¹

LQLHVLKRVSGLLSHTMLLKALG [ML1-1]
kon ([1]; SPR, Table 10): 5550 M⁻¹ s⁻¹ | koff ([1]; SPR, Table 10): 0.0059 s⁻¹

LQRHVDKRVSGLRSLTTLLRALG [ML1-C2]
cell proliferation rate (PC12 cells [3]): cell proliferative effects to a degree similar to that of the natural erythropoietin | clustering of cell protective and proliferative effects relative to EPO (PC12 cells [2]): clustered as having similar effects as EPO | kon ([1]; SPR, Table 11): 1590 M⁻¹ s⁻¹ | koff ([1]; SPR, Table 11): 0.0188 s⁻¹

LQRHVKKRVKGLKSLTTLLRALG [ML1-C3]
cell proliferation rate (PC12 cells [3]): cell proliferative effects to a degree similar to that of the natural erythropoietin | clustering of cell protective and proliferative effects relative to EPO (PC12 cells [2]): clustered as having similar effects as EPO | kon ([1]; SPR, Table 11): 1100 M⁻¹ s⁻¹ | koff ([1]; SPR, Table 11): 0.0109 s⁻¹

NKAVAGLRSLTVN [ML8-1]
koff ([1]; SPR, Table 10): 0.15 s⁻¹

RHVKKRVKGLKSLTTLLRA (MLP-C) [ML1-C3 with two amino acids removed from both ends, for in vivo use]
hemoglobin content (mice; [5]): significant increases | mean corpuscular hemoglobin (mice; [5]): significant increases | mean corpuscular hemoglobin concentration (mice; [5]): significant increases | red blood cell count (mice; 100 μg/kg intraperitoneal daily over 14 days, FIG. 11B): significant increases | platelet concentration (mice; intraperitoneal daily over 14 days, FIG. 11D): no large change | hematocrit (mice; intraperitoneal, 1 or 100 μg/kg daily over 14 days, FIG. 11A): significantly increased according to an administration dose | character of erythropoietin receptor activation (erythropoietin receptor): brief but potent activation | erythropoietin receptor activation after 30 minutes (erythropoietin receptor; [4]): decline thereafter | time of maximum erythropoietin receptor activity (ERK1/2 phosphorylation) (erythropoietin receptor; [4]): 30 min

RHVQKAESGLRSLTKLLREL [ML2-1]
kon ([1]; SPR, Table 10): 310 M⁻¹ s⁻¹ | koff ([1]; SPR, Table 10): 0.0041 s⁻¹

SGLRSLTTLLRALG [ML5]
kon ([1]; SPR, Table 10): 304 M⁻¹ s⁻¹ | koff ([1]; SPR, Table 10): 0.0001 s⁻¹

TKVNFYAWKR [ML3]
kon ([1]; SPR, Table 10): 205 M⁻¹ s⁻¹ | koff ([1]; SPR, Table 10): 0.003 s⁻¹

TRVNYQAWKR [ML3-1]
kon ([1]; SPR, Table 10): 3080 M⁻¹ s⁻¹ | koff ([1]; SPR, Table 10): 0.013 s⁻¹
